Laboratory results as given in patent US20220169628A1 (University of Florida Research Foundation, Incorporated, priority 2019, published 2022).
Read-outs that look alike come from different tables or passages of the source.

Tests used:
RS4;11 cells = experiment: Cell viability assay, MTS, 48 h, RS4;11; assay type: cell-based; conditions: 48 hours, read-out: IC50 (48 hours) RS4;11
Procedure: (§1) Acute lymphoblastic leukemia cells (MOLT-4 and RS4; 11) or small cell lung cancer (NCI-H146 or simply H146) were incubated with increasing concentrations of Bcl-xL degraders for 48 h. Cell viability was measured by tetrazolium-based MTS assay.

MOLT-4 cells = experiment: Cell viability assay, MTS, 48 h, MOLT-4; assay type: cell-based; conditions: 48 hours, read-out: IC50 (48 hours) MOLT-4
Procedure: as §1

Row | Compound | IC50 (RS4;11 cells; Homo sapiens, RS4-11, 48 h) | IC50 (MOLT-4 cells; Homo sapiens, MOLT-4, 48 h) | IC50 (RS4;11 cells) | IC50 (MOLT-4 cells)
1 | Cc1ncsc1-c1ccc([C@H](C)NC(=O)[C@@H]2C[C@@H](O)CN2C(=O)[C@@H](NC(=O)CCCN2CCN(CC3(C)CCC(c4ccc(Cl)cc4)=C(CN4CCN(c5ccc(C(=O)NS(=O)(=O)c6ccc(N[C@H](CCN7CCOCC7)CSc7ccccc7)c(S(=O)(=O)C(F)(F)F)c6)cc5)CC4)C3)CC2)C(C)(C)C)cc1 (stereo partly drawn) [compound 68, (2S,4R)-1-((2S)-2-(4-(4-((4′-chloro-4-methyl-6-((4-(4-(((4-(((R)-4-morpholino-1-(phenylthio)butan-2-yl)amino)-3-((trifluoromethyl)sulfonyl)phenyl)sulfonyl)carbamoyl)phenyl)piperazin-1-yl)methyl)-2,3,4,5-tetrahydro-[1,1′-biphenyl]-4-yl)methyl)piperazin-1-yl)butanamido)-3,3-dimethylbutanoyl)-4-hydroxy-N—((S)-1-(4-(4-methylthiazol-5-yl)phenyl)ethyl)pyrrolidine-2-carboxamide] | 0.15 to 0.5 µM | > 0.5 µM | – | –
2 | Cc1ncsc1-c1ccc([C@H](C)NC(=O)[C@@H]2C[C@@H](O)CN2C(=O)[C@@H](NC(=O)CCCCCN2CCN(CC3(C)CCC(c4ccc(Cl)cc4)=C(CN4CCN(c5ccc(C(=O)NS(=O)(=O)c6ccc(N[C@H](CCN7CCOCC7)CSc7ccccc7)c(S(=O)(=O)C(F)(F)F)c6)cc5)CC4)C3)CC2)C(C)(C)C)cc1 (stereo partly drawn) [compound 69, (2S,4R)-1-((2S)-2-(6-(4-((4′-chloro-4-methyl-6-((4-(4-(((4-(((R)-4-morpholino-1-(phenylthio)butan-2-yl)amino)-3-((trifluoromethyl)sulfonyl)phenyl)sulfonyl)carbamoyl)phenyl)piperazin-1-yl)methyl)-2,3,4,5-tetrahydro-[1,1′-biphenyl]-4-yl)methyl)piperazin-1-yl)hexanamido)-3,3-dimethylbutanoyl)-4-hydroxy-N—((S)-1-(4-(4-methylthiazol-5-yl)phenyl)ethyl)pyrrolidine-2-carboxamide] | – | – | 0.05 to 0.15 µM | 0.05 to 0.15 µM
3 | CC1(CNC(=O)CCCCNc2cccc3c2C(=O)N(C2CCC(=O)NC2=O)C3=O)CCC(c2ccc(Cl)cc2)=C(CN2CCN(c3ccc(C(=O)NS(=O)(=O)c4ccc(N[C@H](CCN5CCOCC5)CSc5ccccc5)c(S(=O)(=O)C(F)(F)F)c4)cc3)CC2)C1 (stereo partly drawn) [compound 70, 4-(4-((4′-chloro-4-((5-((2-(2,6-dioxopiperidin-3-yl)-1,3-dioxoisoindolin-4-yl)amino)pentanamido)methyl)-4-methyl-3,4,5,6-tetrahydro-[1,1′-biphenyl]-2-yl)methyl)piperazin-1-yl)-N-((4-(((R)-4-morpholino-1-(phenylthio)butan-2-yl)amino)-3-((trifluoromethyl)sulfonyl)phenyl)sulfonyl)benzamide] | 0.05 to 0.15 µM | 0.05 to 0.15 µM | – | –
4 | CC1(CNC(=O)CCCCCNc2cccc3c2C(=O)N(C2CCC(=O)NC2=O)C3=O)CCC(c2ccc(Cl)cc2)=C(CN2CCN(c3ccc(C(=O)NS(=O)(=O)c4ccc(N[C@H](CCN5CCOCC5)CSc5ccccc5)c(S(=O)(=O)C(F)(F)F)c4)cc3)CC2)C1 (stereo partly drawn) [compound 71, 4-(4-((4′-chloro-4-((6-((2-(2,6-dioxopiperidin-3-yl)-1,3-dioxoisoindolin-4-yl)amino)hexanamido)methyl)-4-methyl-3,4,5,6-tetrahydro-[1,1′-biphenyl]-2-yl)methyl)piperazin-1-yl)-N-((4-(((R)-4-morpholino-1-(phenylthio)butan-2-yl)amino)-3-((trifluoromethyl)sulfonyl)phenyl)sulfonyl)benzamide] | < 0.05 µM | < 0.05 µM | – | –
5 | CC1(CNC(=O)CCCCCCNc2cccc3c2C(=O)N(C2CCC(=O)NC2=O)C3=O)CCC(c2ccc(Cl)cc2)=C(CN2CCN(c3ccc(C(=O)NS(=O)(=O)c4ccc(N[C@H](CCN5CCOCC5)CSc5ccccc5)c(S(=O)(=O)C(F)(F)F)c4)cc3)CC2)C1 (stereo partly drawn) [compound 72, 4-(4-((4′-chloro-4-((7-((2-(2,6-dioxopiperidin-3-yl)-1,3-dioxoisoindolin-4-yl)amino)heptanamido)methyl)-4-methyl-3,4,5,6-tetrahydro-[1,1′-biphenyl]-2-yl)methyl)piperazin-1-yl)-N-((4-(((R)-4-morpholino-1-(phenylthio)butan-2-yl)amino)-3-((trifluoromethyl)sulfonyl)phenyl)sulfonyl)benzamide] | < 0.05 µM | < 0.05 µM | – | –
6 | CC1(CNC(=O)CCCCCCCNc2cccc3c2C(=O)N(C2CCC(=O)NC2=O)C3=O)CCC(c2ccc(Cl)cc2)=C(CN2CCN(c3ccc(C(=O)NS(=O)(=O)c4ccc(N[C@H](CCN5CCOCC5)CSc5ccccc5)c(S(=O)(=O)C(F)(F)F)c4)cc3)CC2)C1 (stereo partly drawn) [compound 73, 4-(4-((4′-chloro-4-((8-((2-(2,6-dioxopiperidin-3-yl)-1,3-dioxoisoindolin-4-yl)amino)octanamido)methyl)-4-methyl-3,4,5,6-tetrahydro-[1,1′-biphenyl]-2-yl)methyl)piperazin-1-yl)-N-((4-(((R)-4-morpholino-1-(phenylthio)butan-2-yl)amino)-3-((trifluoromethyl)sulfonyl)phenyl)sulfonyl)benzamide] | < 0.05 µM | < 0.05 µM | – | –
7 | CC1(CNC(=O)CCCCCCCCNc2cccc3c2C(=O)N(C2CCC(=O)NC2=O)C3=O)CCC(c2ccc(Cl)cc2)=C(CN2CCN(c3ccc(C(=O)NS(=O)(=O)c4ccc(N[C@H](CCN5CCOCC5)CSc5ccccc5)c(S(=O)(=O)C(F)(F)F)c4)cc3)CC2)C1 (stereo partly drawn) [compound 74, 4-(4-((4′-chloro-4-((9-((2-(2,6-dioxopiperidin-3-yl)-1,3-dioxoisoindolin-4-yl)amino)nonanamido)methyl)-4-methyl-3,4,5,6-tetrahydro-[1,1′-biphenyl]-2-yl)methyl)piperazin-1-yl)-N-((4-(((R)-4-morpholino-1-(phenylthio)butan-2-yl)amino)-3-((trifluoromethyl)sulfonyl)phenyl)sulfonyl)benzamide] | 0.05 to 0.15 µM | < 0.05 µM | – | –
8 | CC1(CNC(=O)CCCCCCCCCCNc2cccc3c2C(=O)N(C2CCC(=O)NC2=O)C3=O)CCC(c2ccc(Cl)cc2)=C(CN2CCN(c3ccc(C(=O)NS(=O)(=O)c4ccc(N[C@H](CCN5CCOCC5)CSc5ccccc5)c(S(=O)(=O)C(F)(F)F)c4)cc3)CC2)C1 (stereo partly drawn) [compound 75, 4-(4-((4′-chloro-4-((11-((2-(2,6-dioxopiperidin-3-yl)-1,3-dioxoisoindolin-4-yl)amino)undecanamido)methyl)-4-methyl-3,4,5,6-tetrahydro-[1,1′-biphenyl]-2-yl)methyl)piperazin-1-yl)-N-((4-(((R)-4-morpholino-1-(phenylthio)butan-2-yl)amino)-3-((trifluoromethyl)sulfonyl)phenyl)sulfonyl)benzamide] | 0.15 to 0.5 µM | 0.05 to 0.15 µM | – | –
9 | CC1(CNC(=O)COCCNc2cccc3c2C(=O)N(C2CCC(=O)NC2=O)C3=O)CCC(c2ccc(Cl)cc2)=C(CN2CCN(c3ccc(C(=O)NS(=O)(=O)c4ccc(N[C@H](CCN5CCOCC5)CSc5ccccc5)c(S(=O)(=O)C(F)(F)F)c4)cc3)CC2)C1 (stereo partly drawn) [compound 76, 4-(4-((4′-chloro-4-((2-(2-((2-(2,6-dioxopiperidin-3-yl)-1,3-dioxoisoindolin-4-yl)amino)ethoxy)acetamido)methyl)-4-methyl-3,4,5,6-tetrahydro-[1,1′-biphenyl]-2-yl)methyl)piperazin-1-yl)-N-((4-(((R)-4-morpholino-1-(phenylthio)butan-2-yl)amino)-3-((trifluoromethyl)sulfonyl)phenyl)sulfonyl)benzamide] | 0.05 to 0.15 µM | 0.05 to 0.15 µM | – | –
10 | CC1(CNC(=O)COCCOCCNc2cccc3c2C(=O)N(C2CCC(=O)NC2=O)C3=O)CCC(c2ccc(Cl)cc2)=C(CN2CCN(c3ccc(C(=O)NS(=O)(=O)c4ccc(N[C@H](CCN5CCOCC5)CSc5ccccc5)c(S(=O)(=O)C(F)(F)F)c4)cc3)CC2)C1 (stereo partly drawn) [compound 77, 4-(4-((4′-chloro-4-((2-(2-(2-((2-(2,6-dioxopiperidin-3-yl)-1,3-dioxoisoindolin-4-yl)amino)ethoxy)ethoxy)acetamido)methyl)-4-methyl-3,4,5,6-tetrahydro-[1,1′-biphenyl]-2-yl)methyl)piperazin-1-yl)-N-((4-(((R)-4-morpholino-1-(phenylthio)butan-2-yl)amino)-3-((trifluoromethyl)sulfonyl)phenyl)sulfonyl)benzamide] | < 0.05 µM | < 0.05 µM | – | –
11 | CC1(CNC(=O)COCCOCCOCCNc2cccc3c2C(=O)N(C2CCC(=O)NC2=O)C3=O)CCC(c2ccc(Cl)cc2)=C(CN2CCN(c3ccc(C(=O)NS(=O)(=O)c4ccc(N[C@H](CCN5CCOCC5)CSc5ccccc5)c(S(=O)(=O)C(F)(F)F)c4)cc3)CC2)C1 (stereo partly drawn) [compound 78, 4-(4-((4′-chloro-4-(13-((2-(2,6-dioxopiperidin-3-yl)-1,3-dioxoisoindolin-4-yl)amino)-3-oxo-5,8,11-trioxa-2-azatridecyl)-4-methyl-3,4,5,6-tetrahydro-[1,1′-biphenyl]-2-yl)methyl)piperazin-1-yl)-N-((4-(((R)-4-morpholino-1-(phenylthio)butan-2-yl)amino)-3-((trifluoromethyl)sulfonyl)phenyl)sulfonyl)benzamide] | < 0.05 µM | < 0.05 µM | – | –
12 | Cc1ncsc1-c1ccc([C@H](C)NC(=O)[C@@H]2C[C@@H](O)CN2C(=O)[C@@H](NC(=O)CCC(=O)N2CCC(c3ccc(Cl)cc3)=C(CN3CCN(c4ccc(C(=O)NS(=O)(=O)c5ccc(N[C@H](CCN6CCOCC6)CSc6ccccc6)c(S(=O)(=O)C(F)(F)F)c5)cc4)CC3)C2)C(C)(C)C)cc1 [compound 79, (2S,4R)-1-((S)-2-(4-(4-(4-chlorophenyl)-5-((4-(4-(((4-(((R)-4-morpholino-1-(phenylthio)butan-2-yl)amino)-3-((trifluoromethyl)sulfonyl)phenyl)sulfonyl)carbamoyl)phenyl)piperazin-1-yl)methyl)-3,6-dihydropyridin-1(2H)-yl)-4-oxobutanamido)-3,3-dimethylbutanoyl)-4-hydroxy-N—((S)-1-(4-(4-methylthiazol-5-yl)phenyl)ethyl)pyrrolidine-2-carboxamide] | > 0.5 µM | > 0.5 µM | – | –
